Data set [1] can be described thus: Catalase activity, conversion of H2O2 to oxygen, polarographic oxygen electrode (Example 2). It is filed as biochemical. The essentials:
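Clark-type oxygen electrode at 25 °C in 50 mM sodium phosphate pH 8.1, 0.9% NaCl, with 10 μM salen-manganese complex and 10 mM H2O2. Initial rates from slope of first ~5 s, corrected for H2O2-alone rate; endpoint O2 as maximal minus pre-substrate baseline.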

Data set [2] deals with Human dermal fibroblasts (HF cells). As to the kind of experiment: Cell protection assay, tert-butylhydroperoxide (t-BHP) toxicity, XTT. Type of data set: cell-based. On the procedure: Human dermal fibroblasts (HF cells) were obtained from the American type tissue Culture Collection at passage 1 and cultured and propagated in a medium (HF medium) consisting of Dulbecco's Modified Eagle's Medium with 4.5 g/l D-glucose, 10% calf serum 4 mM glutamine, 50 units/ml penicillin, and 50 μg/ml streptomycin in a 37° C. humidified incubator equilibrated with 5% CO2. Cells were used at passages 5 or 6 for experiments. For cell protection assays, HF cells were seeded at a density of about 15,000 cells per cm2 onto 96-well culture plates and allowed to grow to confluence. To assess protection tert-butylhydroperoxide (t-BHP) toxicity, confluent cell layers were first treated with the indicated concentrations of test compounds dissolved in HF medium for 18 hr. The medium was then replaced with fresh medium containing test compounds and 0.5 mM tert-butylhydroperoxide (t-BHP) and cells were incubated for another 18 hr. The medium was then removed and replaced with fresh HF medium (100 μl per well) without test compounds or t-BHP. Fifty μl of XTT reagent (Boeringer Mannheim, Inc.), prepared as described by the manufacturer, was then added to each well and the plates returned to the incubator. After 2 hr., the absorbance at 490 nm was measured in a BioRad (Richmond, Calif.) Model 3550 plate-reader, using a reference wavelength of 655 nm. Control cells that had not been exposed to test compounds or toxic agents were included among the samples treated with XTT reagent. Absorbance measurements for blank wells, containing HF medium and XTT reagent but no cells, were also determined. To analyze protection from glucose/glucose oxidase toxicity, confluent cell layers were incubated with HF medium containing glucose oxidase (0.019 units/ml) along with test compounds, as indicated, for 18 hr in the tissue culture incubator. Fresh HF medium was then added and cell viability assessed using the XTT reagent as described above. For both these models, concentrations of toxic agents were selected that were reproducibly completely lethal. Cytotoxicity assessments were routinely confirmed by visual inspection of the cell layers prior to addition of the XTT reagent.
In general terms: Tetrazolium assays rely on reduction of a dye to a coloured formazan, in cell work by metabolically active cells.

For data set [3], the system named is brain homogenates. The data set is described as follows: Iron-induced lipid peroxidation in brain homogenates (MDA). Type of data set: biochemical, rat. The protocol: Lipid peroxidation was induced by incubating a mixture consisting of 0.25 ml homogenate, 0.25 ml ASCF with test compounds, and 10 μM FeCl2 for 1 hr at 35° C. under an atmosphere equilibrated with O2:CO2(95:5). Following the incubation, 0.1 ml of the sample was extracted with trichloroacetic acid and analyzed for thiobarbituric acid reactive material as described previously, using authentic malonyldialdehyde (MDA) as a standard.

Data set [4] can be described thus: Peroxidase activity with t-BHP as substrate, ABTS oxidation. It is filed as biochemical. On the procedure:
Peroxidase activity was assayed by monitoring the hydrogen peroxide-dependent oxidation of 2,2′-azino-bis(3-ethylbenzthiazoline-6) sulfonic acid (ABTS) spectrophotometrically. Standard assay mixtures consisted of 50 mM sodium phosphate, pH 8.1, 0.9% sodium chloride, 0.5 mM ABTS, and H2O2 and salen manganese complex as indicated. Where indicated, 50 mM sodium phosphate buffers of pH 6.0 or pH 7.1 were substituted. Assays were conducted at 27±0.2° C. ABTS oxidation was monitored at 740 or 500 nm to eliminate interference by the salen manganese complexes, many of which absorb in the vicinity of the λmax of oxidized ABTS, and to avoid absorbance values that exceeded the linear range of the spectrophotometer. The amount of oxidized ABTS was estimated using an Δε740 of 20,300 M^−1cm^−1 or an Δε500 of 3400 M^−1cm^−1 calculated based upon the published molar extinction coefficient oat 405 nm (36,800).
(In comparison, horseradish peroxidase utilized t-BHP with an ABTS oxidation rate that was about 5.4% of the rate with H2O2).

Where [5] appears, read: 10 μM salen manganese complex, 10 mM H2O2.

Bounds are passed on as bounds.

As to `COc1cc(OC)c2c(c1)[O][Mn]([O]C(C)=O)[O]c1cc(OC)cc(OC)c1C=NCCN=C2` [Compound C35], the “catalase activity (in words)” value in data set [1] was “much lower catalase activity”. Also, the Catalase rate turned out to be 36.0 ± 8.0 μM O2/min in data set [1] (setting [5]) and 25 in data set [1] (relative to C7 (C7 = 100)). This molecule displayed an Endpoint in data set [1] (setting [5]) of 10.5 ± 3.0 maximal μM O2. The Catalase endpt. in data set [1] (relative to C7 (C7 = 100)) stood at 41. The “Cell viability, absorbance at 490 nm uncorrected for blank” value (from here on “Cell viability, absorbance”) in data set [2] (2.5 μM, t-BHP 0.5 mM) was determined as 0.27 ± 0.01; in data set [2] (5 μM, t-BHP 0.5 mM), 0.27 ± 0.01; in data set [2] (10 μM, t-BHP 0.5 mM), 0.29 ± 0.03; in data set [2] (20 μM, t-BHP 0.5 mM), 1.40 ± 0.05; in data set [2] (40 μM, t-BHP 0.5 mM) it was 1.52 ± 0.07; in data set [2] (80 μM, t-BHP 0.5 mM), 0.57 ± 0.01. The “toxicity of compound alone” value in data set [2] (80 μM, without t-BHP) is listed as “equivalent toxicity with or without t-BHP”. In addition, the “concentration at which protection was observed” value in data set [2] (t-BHP 0.5 mM) was not below 20 µM. Moreover, the “inhibition of lipid peroxidation (in words)” value in data set [3] is “very potent”. In addition, the “MDA levels, percent of control” value is 82% in data set [3] (1 μM), 5% in data set [3] (5 μM), 4% in data set [3] (10 μM) and 3% in data set [3] (25 μM). The “peroxidase activity toward t-BHP, percent of C7” value in data set [4] is given as “less than 2%”.
`COc1cccc2c1[O][Mn]([Cl])[O]c1c(cccc1OC)C=NCCN=C2` [Compound C40]: the “catalase activity (in words)” value in data set [1] is reported as “higher rate”. In data set [1] (relative to C7 (C7 = 100)), the Catalase endpt. was 272 and the Catalase rate was determined as 155.
With `[Cl][Mn]1[O]c2ccccc2C=NCCN=Cc2ccccc2[O]1` [Compound C7], the “catalase activity (in words)” value in data set [1] is “exhibits catalase activity”. For the same molecule, the catalase turnovers completed result in data set [1] (10 μM C7, ~1 mM H2O2) was “no more than a single turnover”. For the same molecule, the Catalase rate in data set [1] (setting [5]) is reported as 148.6 ± 33.5 μM O2/min; in data set [1] (relative to C7 (C7 = 100)), 100. This molecule also had an Endpoint in data set [1] (setting [5]) of 32.3 ± 1.2 maximal μM O2. Besides, the Catalase endpt. in data set [1] (relative to C7 (C7 = 100)) worked out at 100. Besides, the “Cell viability, absorbance” value in data set [2] (2.5 μM, t-BHP 0.5 mM) worked out at 0.28 ± 0.01; in data set [2] (5 μM, t-BHP 0.5 mM), 0.68 ± 0.31; in data set [2] (10 μM, t-BHP 0.5 mM), 1.45 ± 0.05; in data set [2] (20 μM, t-BHP 0.5 mM), 1.44 ± 0.05; in data set [2] (40 μM, t-BHP 0.5 mM) it was 1.42 ± 0.03; in data set [2] (80 μM, t-BHP 0.5 mM), 0.77 ± 0.41. The “synergistic toxicity with t-BHP” value in data set [2] (80 μM) is recorded as “possible synergistic toxicity”. Further, the “MDA levels, percent of control” value in data set [3] (1 μM) came out at 110%; in data set [3] (5 μM) it was 84%; in data set [3] (10 μM), 22%; in data set [3] (25 μM), 4%. In addition, the “ABTS oxidation rate with t-BHP, percent of rate with H2O2” value in data set [4] (1 mM t-BHP) is listed as “about 0.5%”.
With `COc1cccc2c1[O][Mn]([O]C(C)=O)[O]c1c(cccc1OC)C=NCCN=C2` [Compound C32], the “catalase activity (in words)” value in data set [1] was “about twice as fast as C7”. In addition, the “turnovers before the catalase reaction ceased” value in data set [1] (10 μM complex, 10 mM H2O2) is “about 16 turnovers”. The figures for the Catalase rate in data set [1] (setting [5]) and in data set [1] (relative to C7 (C7 = 100)) were 295.0 ± 31.9 μM O2/min and 188, respectively. The molecule also came in with an Endpoint in data set [1] (setting [5]) of 90.1 ± 2.6 maximal μM O2. The molecule also registered a Catalase endpt. in data set [1] (relative to C7 (C7 = 100)) of 319. For the same molecule, the “Cell viability, absorbance” value is on record as 0.29 ± 0.01 in data set [2] (2.5 μM, t-BHP 0.5 mM); 0.28 ± 0.01 in data set [2] (5 μM, t-BHP 0.5 mM); 1.35 ± 0.05 in data set [2] (10 μM, t-BHP 0.5 mM); 1.43 ± 0.05 in data set [2] (20 μM, t-BHP 0.5 mM); 1.48 ± 0.06 in data set [2] (40 μM, t-BHP 0.5 mM); 1.40 ± 0.07 in data set [2] (80 μM, t-BHP 0.5 mM). In addition, the “MDA levels, percent of control” value was found to be 104% in data set [3] (1 μM), 35% in data set [3] (5 μM), 13% in data set [3] (10 μM) and 8% in data set [3] (25 μM). Also, the “peroxidase rate with t-BHP relative to C7” value in data set [4] is approximately 3 fold.
